Experimental findings from patent publication US20250152605A1, “METHOD AND DRUG FOR TREATING NEURONAL CEROID LIPOFUSCINOSIS” (priority 2021, published 2025) are described below.

Each structure is given as a SMILES string.

Data set [1] concerns APP-gene mutant human neurons. Briefly: Human neuron model of Alzheimer's dementia (Aβ immunofluorescence, Aβ42 ELISA). It counts as cell-based. The source says: FIG. 44: Compound G reduced Aβ protein storage and secretion levels of toxic Aβ42 in APP mutant neurons. (a) Immunofluorescence staining, for detecting Compound G-treated APP mutant neurons for abnormal accumulation of Aβ protein and (b) statistics of Aβ plaque area, and the scale bar was 50 μm. (c) ELISA tests, for measuring the effect of Compound G on the secretion level of toxic Aβ42 of APP mutant neurons.
The present disclosure detected the therapeutic effect of the treatment of Compound G on Alzheimer's dementia. We directed the differentiation of human embryonic stem cells with mutations in APP gene into human neurons in vitro and constructed an in vitro human neuron model of Alzheimer's dementia.
For orientation: An ELISA detects its analyte on a solid surface through an enzyme-linked reagent.

Data set [2] concerns CLN3^Δex7/8 neural stem cells. Briefly: Lysotracker staining of CLN3^Δex7/8 neural stem cells. The data set is classed as cell-based, human. On the procedure:
The cells were stained with Lysotracker, a fluorescent dye that is enriched in acidic lysosomes and emits red fluorescence. The fluorescence intensity of the stained cells was then analyzed using flow cytometry.

Another data set deals with mice's neurons. Briefly: qRT-PCR of autophagy-related and lysosomal genes in mouse neurons. It counts as cell-based. The following applies: 6 hours. On the procedure: The cells in the cell-culture dish were collected, extracted using AxyPrep Total RNA Mini Prep Kit or Qiagen AxyPrep Total RNA Mini Prep Kit, and the extracted RNA concentration is measured using Nanodrop; the extracted mRNA was reverse transcribed into cDNA by Transgen's EasyScript® One-Step gDNA Removal and cDNA Synthesis SuperMix and the primers used for reverse transcription were Oligo dT primers; the completion of reverse transcription followed by qRT-PCR reaction through PerfectStart™ Green qPCR SuperMix to detect the expression of the target gene; the qRT-PCR reaction was performed on the Bio-Rad CFX96 Real-Time PCR system; see Table 2 and Table 3 for the 20 μL qRT-PCR reaction system and reaction procedures; data analysis was performed in Prism 7 software using the 2^−ΔΔCt process with GAPDH as internal reference for relative quantification of the expression of the target gene.
After treating primary (a) neural stem cells and (b) neurons of Cln3 KO) mice for 6 hours, the mRNA was extracted from the cells, reverse-transcribed into cDNA, and transcription levels of autophagy- and lysosome-related genes were detected using qRT-PCR (n=3).
It was speculated from this that the known target FXR of Compound G was expressed at low or no levels in neural lineage cells. […]

In data set [3] the test system is CLN3^Δex7/8 neural stem cells. Briefly: Differentiation of CLN3^Δex7/8 neural stem cells into neurons. It counts as cell-based, human. The following applies: after 17 days of differentiation. On the procedure: When the density of human induced neural stem cells reached 85-95%, passage was performed at 1:20-1:50 according to the above method. The medium on the day of passage (recorded as Day 1 of differentiation) was human neural stem cell maintenance medium with 10 μM Y27632, which was removed after 24 h, and culture continued in human neural stem cell maintenance medium for 48 hours. On Day 4 of differentiation, the medium was changed to human neuronal differentiation medium (human neuronal medium: DMEM/F12 medium+10 ng/ml hBDNF+10 ng/ml hGDNF+300 ng/mL cAMP+0.2 mM vitamin C+1×N2+1×B27+1% Penicillin/Streptomycin), with medium change halfly every other day. Human neurons highly expressing MAP2 and TUJ1 proteins were obtained on Day 17 of differentiation. Thereafter, the human neurons could be continuously cultured in the human neuron differentiation medium, with medium change halfly every other day.
Starting from the same number of human neural stem cells induced to differentiate into human neurons, CLN3^Δex7/8 neural stem cells eventually generated a lower number of neurons than wild-type cells. During the process of neurons differentiation, the seven small molecule compounds obtained above were each added to the culture medium and observed for their effects on the differentiation process of CLN3^Δex7/8 neural stem cells into neurons.

Data set [4] is described as follows: Drug concentration in mouse brain tissue (UPLC-MS/MS). It counts as in vivo. The following applies: Cln3 KO mice. On the procedure:
In order to determine whether Compound G can pass through the blood-brain barrier and its drug concentration in the brain tissue of mice, the following experiment was performed: Compound G was dissolved in drinking water at a concentration of 1 mg/mL and fed to mice, and a solvent was added to the drinking water of control mice; mice treated with Compound G were removed at 8 different random time points, and after Avertin anesthesia, their hearts were perfused with 20 mL dPBS to rinse the blood in the mice; non-dosed mice were also perfused in the same manner as blank tissue; whole mouse brain tissue was removed, weighed, snap frozen in liquid nitrogen and ground using Mixer Mill (RETSCH MM400) with a shaking frequency of 26 beats/sec for 5 minutes; a small molecule with similar structural properties to Compound G was prepared in advance as an internal reference (denoted IS) and IS was dissolved in 80% aqueous methanol to 100 ng/ml. […]
After using dPBS to completely perfuse the systemic blood, the mice were euthanized and the brain tissues thereof were taken out. The drug concentrations of Compound G in the mouse brain tissues were measured.

`C/C=C1\C(=O)C[C@H]2[C@@H]3CCC4=CC(=O)CC[C@]4(C)[C@H]3CC[C@]12C` [Compound G, (Z)-guggulsterone]: the “deposition of Aβ plaques” value in data set [1] was “significant reduction”. In addition, the “level of toxic Aβ42 secreted by the cells into the culture medium” value in data set [1] (ELISA) is on record as “significant reduction”. Further, the “Lysotracker staining in neural stem cells” value in data set [2] is given as “significantly improve the Lysotracker staining”. In addition, in the data set with mice's neurons, the “transcription level of the autophagy-related genes or the lysosomal genes” value was “did not significantly increase”. In data set [3], the “MAP2 and TUJ1-positive neurons generated from the same number of cells” value was “generate more MAP2 and TUJ1-positive neurons”. Besides, the “average concentration in the mouse brain” value in data set [4] (1 mg/mL in drinking water, different time points (n=8)) worked out at 814.74±834.19 ng/g brain tissue. Besides, the “penetration of the blood-brain barrier” value in data set [4] (drinking water) is “could penetrate the blood-brain barrier”.
